Measurements reported in ChEMBL document CHEMBL1201862, “PubChem BioAssay data set” (2004).
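Compound exposure: 48 hours, 5 concentrations, 96-well plates. GI50 marks 50% less growth.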 The source made the active and inactive calls. Cut-off read from the data, not from the text of the source: active = GI50 up to about 1.1 µM and inactive = higher.

Legend:
Experiment in all cases: NCI-60 cell line screen, 48 h
[1] = test system: MCF7
[2] = test system: NCI-H226
[3] = test system: SF-295
[4] = test system: A549
[5] = test system: HCT-116
[6] = test system: SR
[7] = test system: EKVX
[8] = test system: HL-60
[9] = test system: SN12C
[10] = test system: SK-MEL-2
[11] = test system: M14
[12] = test system: KM12
[13] = test system: LOX IMVI
[14] = test system: HT-29
[15] = test system: ACHN
[16] = test system: U-251
[17] = test system: SK-MEL-5
[18] = test system: Malme-3M
[19] = test system: IGROV-1
[20] = test system: SF-268
[21] = test system: SNB-19
[22] = test system: MDA-MB-231
[23] = test system: Hs-578T
[24] = test system: COLO 205
[25] = test system: OVCAR-5
[26] = test system: A498
[27] = test system: K562
[28] = test system: HOP-92
[29] = test system: HOP-62
[30] = test system: OVCAR-8
[31] = test system: SF-539
[32] = test system: T47D
[33] = test system: SK-OV-3
[34] = test system: UACC-257
[35] = test system: MDA-N
[36] = test system: TK-10
[37] = test system: NCI-H522
[38] = test system: MDA-MB-435
[39] = test system: CAKI-1
[40] = test system: SNB-75
[41] = test system: 786-0
[42] = test system: OVCAR-3
[43] = test system: UO-31
[44] = test system: MOLT-4
[45] = test system: OVCAR-4
[46] = test system: PC-3
[47] = test system: RXF 393
[48] = test system: SK-MEL-28
[49] = test system: UACC-62
[50] = test system: RPMI-8226
[51] = test system: NCI/ADR-RES
[52] = test system: SW-620
[53] = test system: DU-145
[54] = test system: NCI-H23
[55] = test system: NCI-H460
[56] = test system: CCRF-CEM
[57] = test system: HCT-15

OCC(O)C(O)C(C=NNc1ncnc2ccc(Br)cc12)=NNc1ncnc2ccc(Br)cc12 (stereo unspecified)
GI50 [1]: 0.479 µM (active)
GI50 [2]: 2.12 µM (inactive)
GI50 [3]: 4.74 µM (inactive)
GI50 [4]: 6.3 µM (inactive)
GI50 [5]: 0.404 µM (active)
GI50 [6]: 0.579 µM (active)
GI50 [7]: 0.581 µM (active)
GI50 [8]: 0.325 µM (active)
GI50 [9]: 6.84 µM (inactive)
GI50 [10]: 2.26 µM (inactive)
GI50 [11]: 3.48 µM (inactive)
GI50 [12]: 5.7 µM (inactive)
GI50 [13]: 0.991 µM (active)
GI50 [14]: 0.662 µM (active)
GI50 [15]: 1.85 µM (inactive)
GI50 [16]: 1.28 µM (inactive)
GI50 [17]: 1.22 µM (inactive)
GI50 [18]: 1.84 µM (inactive)
GI50 [19]: 1.45 µM (inactive)
GI50 [20]: 1.16 µM (inactive)
GI50 [21]: 6.04 µM (inactive)
GI50 [22]: 1.26 µM (inactive)
GI50 [23]: 41.9 µM (inactive)
GI50 [24]: 0.366 µM (active)
GI50 [25]: 5.13 µM (inactive)
GI50 [26]: 26 µM (inactive)
GI50 [27]: 2.58 µM (inactive)
GI50 [28]: 4.3 µM (inactive)
GI50 [29]: 5.12 µM (inactive)
GI50 [30]: 1.72 µM (inactive)
GI50 [31]: 3.13 µM (inactive)
GI50 [32]: 0.413 µM (active)
GI50 [33]: 2.59 µM (inactive)
GI50 [34]: 3.52 µM (inactive)
GI50 [35]: 5.06 µM (inactive)
GI50 [36]: 13.2 µM (inactive)
GI50 [37]: 0.404 µM (active)
GI50 [38]: 4.79 µM (inactive)
GI50 [39]: 2.22 µM (inactive)
GI50 [40]: 5.82 µM (inactive)
GI50 [41]: 1.14 µM (inactive)
GI50 [42]: 0.344 µM (active)
GI50 [43]: 9.71 µM (inactive)
GI50 [44]: 0.282 µM (active)
GI50 [45]: 0.435 µM (active)
GI50 [46]: 4.73 µM (inactive)

Nc1nc(N)c2nc(CNc3ccc(C(=O)NC(CCC(=O)O)C(=O)O)cc3F)cnc2n1 (stereo unspecified)
GI50 [1]: < 0.01 µM (active)
GI50 [2]: > 100 µM (inactive)
GI50 [3]: < 0.01 µM (active)
GI50 [47]: > 100 µM (inactive)
GI50 [4]: < 0.01 µM (active)
GI50 [5]: < 0.01 µM (active)
GI50 [6]: < 0.01 µM (active)
GI50 [7]: < 0.01 µM (active)
GI50 [8]: < 0.01 µM (active)
GI50 [48]: > 100 µM (inactive)
GI50 [9]: < 0.01 µM (active)
GI50 [49]: < 0.01 µM (active)
GI50 [10]: > 59 µM (inactive)
GI50 [11]: < 0.01 µM (active)
GI50 [12]: < 0.01 µM (active)
GI50 [13]: < 0.01 µM (active)
GI50 [14]: < 0.01 µM (active)
GI50 [15]: < 0.01 µM (active)
GI50 [16]: < 0.01 µM (active)
GI50 [50]: < 0.01 µM (active)
GI50 [51]: < 0.01 µM (active)
GI50 [17]: < 0.0128 µM (active)
GI50 [19]: < 0.01 µM (active)
GI50 [20]: < 0.01 µM (active)
GI50 [21]: < 0.01 µM (active)
GI50 [22]: > 57.9 µM (inactive)
GI50 [23]: > 100 µM (inactive)
GI50 [24]: > 48.2 µM (inactive)
GI50 [25]: > 100 µM (inactive)
GI50 [26]: < 0.01 µM (active)
GI50 [52]: < 0.01 µM (active)
GI50 [27]: < 0.01 µM (active)
GI50 [29]: < 0.01 µM (active)
GI50 [30]: < 0.01 µM (active)
GI50 [31]: < 0.01 µM (active)
GI50 [32]: < 0.01 µM (active)
GI50 [33]: > 100 µM (inactive)
GI50 [34]: > 100 µM (inactive)
GI50 [53]: < 0.01 µM (active)
GI50 [54]: < 0.01 µM (active)
GI50 [35]: < 0.01 µM (active)
GI50 [36]: > 100 µM (inactive)
GI50 [37]: < 0.01 µM (active)
GI50 [55]: < 0.01 µM (active)
GI50 [38]: < 0.01 µM (active)
GI50 [39]: < 0.01 µM (active)
GI50 [56]: < 0.01 µM (active)
GI50 [40]: 16.1 µM (inactive)
GI50 [41]: < 0.01 µM (active)
GI50 [42]: 45.1 µM (inactive)
GI50 [43]: < 0.01 µM (active)
GI50 [44]: < 0.01 µM (active)
GI50 [45]: > 81.7 µM (inactive)
GI50 [57]: < 0.01 µM

CC#Cc1ccc(-c2ccccc2)s1
GI50 [1]: > 100 µM (inactive)
GI50 [2]: > 100 µM (inactive)
GI50 [3]: > 100 µM (inactive)
GI50 [47]: > 100 µM (inactive)
GI50 [4]: > 100 µM (inactive)
GI50 [5]: > 100 µM (inactive)
GI50 [6]: > 100 µM (inactive)
GI50 [7]: > 100 µM (inactive)
GI50 [8]: > 100 µM (inactive)
GI50 [48]: > 100 µM (inactive)
GI50 [9]: > 100 µM (inactive)
GI50 [49]: > 100 µM (inactive)
GI50 [10]: > 100 µM (inactive)
GI50 [11]: > 100 µM (inactive)
GI50 [12]: > 100 µM (inactive)
GI50 [13]: > 100 µM (inactive)
GI50 [14]: > 100 µM (inactive)
GI50 [15]: > 100 µM (inactive)
GI50 [16]: > 100 µM (inactive)
GI50 [51]: > 100 µM (inactive)
GI50 [17]: > 100 µM (inactive)
GI50 [19]: > 100 µM (inactive)
GI50 [20]: > 100 µM (inactive)
GI50 [21]: > 100 µM (inactive)
GI50 [22]: > 100 µM (inactive)
GI50 [23]: > 100 µM (inactive)
GI50 [24]: > 100 µM (inactive)
GI50 [25]: > 100 µM (inactive)
GI50 [26]: > 100 µM (inactive)
GI50 [52]: > 100 µM (inactive)
GI50 [28]: > 100 µM (inactive)
GI50 [30]: > 100 µM (inactive)
GI50 [31]: > 100 µM (inactive)
GI50 [34]: > 100 µM (inactive)
GI50 [53]: > 100 µM (inactive)
GI50 [54]: 68.9 µM (inactive)
GI50 [35]: > 100 µM (inactive)
GI50 [36]: > 100 µM (inactive)
GI50 [37]: > 100 µM (inactive)
GI50 [55]: > 100 µM (inactive)
GI50 [38]: > 100 µM (inactive)
GI50 [39]: > 100 µM (inactive)
GI50 [56]: > 100 µM (inactive)
GI50 [40]: > 100 µM (inactive)
GI50 [41]: > 100 µM (inactive)
GI50 [42]: > 100 µM (inactive)
GI50 [43]: > 100 µM (inactive)
GI50 [44]: > 100 µM (inactive)
GI50 [45]: > 100 µM (inactive)
GI50 [46]: > 100 µM (inactive)
GI50 [57]: > 100 µM
